The test system of one data set is AMPK_r. The data set is described as follows: SelectScreen kinase assay. The format is biochemical, rat. The conditions noted are these: 3 µM, KM ATP. The protocol: (§1) Syk kinase mode of inhibition studies, including parameters described in Fig 1, were conducted on the LC3000 platform by Caliper Life Sciences (Hopkinton, MA) according to standard protocols developed by the supplier. […] Non-kinase enzyme assays and GPCR, ion channel, and transporter binding assays were run by CEREP (France). Non-GLP manual patch clamp hERG assays were run by ChanTest (Cleveland, Ohio). Vivid® Assay kits (Life Technologies) were used to measure the cytochrome P450 inhibition of the compound against CYP3A, CYP2C9, CYP2C19, CYP2D6, and CYP1A2, as described.
Kinase activity was measured using either the Z’-Lyte® or the Adapta® protocols as part of the SelectScreen™ profiling service offered at Life Technologies (Grand Island, NY). For the single point measurements (Part A), CC-509 was kept constant at 3 µM while ATP concentrations [ATP] used were at the KM for ATP (KM ATP) for that specific enyzme, at 10 or 100 µM ATP (10 ATP or 100 ATP, respectively), as indicated. Values expressed as percent control (% control) relative to DMSO-only wells (uninhibited, 100%).
Kinase activity was measured using either the Z’-Lyte® or the Adapta® protocols as part of the SelectScreen™ profiling service offered at Life Technologies (Grand Island, NY). […] Values expressed as percent control (% control) relative to DMSO-only wells (uninhibited, 100%).

The target in the next data set is T1, Abl_T315I_h (Homo sapiens, UniProt P00519, T315I).
T1 construct: purchased Life Technologies (Invitrogen) SelectScreen, Z'-LYTE / Adapta
In words: SelectScreen kinase assay. The following applies: KM ATP, read-out: % control. The format is biochemical. In a few lines:
(§2)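 Each enzyme is assayed by Z'-Lyte or Adapta with the compound at a constant 3 µM. ATP is used at that enzyme's KM or at 10 or 100 µM. Activity is expressed relative to DMSO-only controls.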

The next data set has as its target T2, Abl_Y253F_h (Homo sapiens, UniProt P00519, Y253F).
T2 construct: purchased Life Technologies (Invitrogen) SelectScreen, Z'-LYTE / Adapta
The data set is described as follows: SelectScreen kinase assay. Type of data set: biochemical. The following applies: KM ATP, read-out: % control. In outline:
as §2

The target in another data set is T3, CAMK1_h (Homo sapiens, UniProt Q14012).
T3 construct: purchased Life Technologies (Invitrogen) SelectScreen, Z'-LYTE / Adapta
The data set is described as follows: SelectScreen kinase assay. The conditions noted are these: 10 µM ATP, read-out: % control. The format is biochemical. In outline:
as §2

The target of the next data set is T4, EGFR_L861Q_h (Homo sapiens, UniProt P00533, L861Q).
T4 construct: purchased Life Technologies (Invitrogen) SelectScreen, Z'-LYTE / Adapta
In words: SelectScreen kinase assay. Type of data set: biochemical. The conditions noted are these: KM ATP, read-out: % control. In outline: as §2

The next data set has as its target T5, Fer_h (Homo sapiens, UniProt P16591).
T5 construct: purchased Life Technologies (Invitrogen) SelectScreen, Z'-LYTE / Adapta
The data set is described as follows: SelectScreen kinase assay. Type of data set: biochemical. The following applies: KM ATP, read-out: % control. In a few lines:
as §2

A further data set deals with T6, Hck_h (Homo sapiens, UniProt P08631).
T6 construct: purchased Life Technologies (Invitrogen) SelectScreen, Z'-LYTE / Adapta
T6 sequence (P08631 whole entry): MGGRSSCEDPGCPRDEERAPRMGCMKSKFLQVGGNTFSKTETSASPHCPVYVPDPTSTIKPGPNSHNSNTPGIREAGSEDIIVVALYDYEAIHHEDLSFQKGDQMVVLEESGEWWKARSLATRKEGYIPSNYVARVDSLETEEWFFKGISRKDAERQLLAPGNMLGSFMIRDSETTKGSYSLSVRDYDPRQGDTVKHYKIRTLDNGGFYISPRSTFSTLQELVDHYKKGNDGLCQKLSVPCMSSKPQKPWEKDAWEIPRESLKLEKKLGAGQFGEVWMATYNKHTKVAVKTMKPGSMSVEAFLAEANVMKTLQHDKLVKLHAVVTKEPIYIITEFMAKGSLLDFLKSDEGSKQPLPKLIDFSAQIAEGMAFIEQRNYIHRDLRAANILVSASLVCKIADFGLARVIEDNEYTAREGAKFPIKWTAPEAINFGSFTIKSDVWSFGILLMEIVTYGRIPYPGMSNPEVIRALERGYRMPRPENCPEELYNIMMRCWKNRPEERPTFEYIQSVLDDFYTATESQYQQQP
The data set is described as follows: SelectScreen kinase assay. The format is biochemical. The conditions noted are these: KM ATP, read-out: % control. In a few lines:
as §2

The target of the next data set is T7, PRK1_h (Homo sapiens, UniProt Q16512).
T7 construct: purchased Life Technologies (Invitrogen) SelectScreen, Z'-LYTE / Adapta
T7 sequence (Q16512 whole entry): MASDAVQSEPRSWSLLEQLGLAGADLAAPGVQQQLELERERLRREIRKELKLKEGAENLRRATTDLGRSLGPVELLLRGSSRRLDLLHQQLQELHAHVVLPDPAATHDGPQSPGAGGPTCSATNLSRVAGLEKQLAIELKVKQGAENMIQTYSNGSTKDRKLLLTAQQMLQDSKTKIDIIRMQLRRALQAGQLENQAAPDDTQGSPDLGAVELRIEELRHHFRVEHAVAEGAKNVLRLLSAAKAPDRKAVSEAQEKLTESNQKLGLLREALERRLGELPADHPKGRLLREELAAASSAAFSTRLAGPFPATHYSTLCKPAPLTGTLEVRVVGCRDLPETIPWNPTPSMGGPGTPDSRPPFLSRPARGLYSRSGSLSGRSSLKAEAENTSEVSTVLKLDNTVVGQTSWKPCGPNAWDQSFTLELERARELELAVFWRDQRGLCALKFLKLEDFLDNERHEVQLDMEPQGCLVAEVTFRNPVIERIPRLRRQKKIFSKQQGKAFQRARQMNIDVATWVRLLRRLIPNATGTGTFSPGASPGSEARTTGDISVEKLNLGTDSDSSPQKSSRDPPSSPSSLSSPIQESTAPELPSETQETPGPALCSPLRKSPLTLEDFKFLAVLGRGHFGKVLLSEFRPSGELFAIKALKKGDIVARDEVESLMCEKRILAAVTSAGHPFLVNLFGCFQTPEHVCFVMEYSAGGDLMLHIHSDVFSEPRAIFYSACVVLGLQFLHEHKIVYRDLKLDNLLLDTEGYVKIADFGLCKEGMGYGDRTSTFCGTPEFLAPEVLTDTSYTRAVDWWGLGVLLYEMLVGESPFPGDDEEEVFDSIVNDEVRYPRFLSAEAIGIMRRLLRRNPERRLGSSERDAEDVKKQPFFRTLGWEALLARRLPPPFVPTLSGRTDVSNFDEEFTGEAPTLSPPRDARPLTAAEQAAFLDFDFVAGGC
The data set is described as follows: SelectScreen kinase assay. The following applies: KM ATP, read-out: % control. Type of data set: biochemical. In outline: as §2

A further data set has as its target T8, Ron_h (Homo sapiens, UniProt Q04912).
T8 construct: purchased Life Technologies (Invitrogen) SelectScreen, Z'-LYTE / Adapta
The data set is described as follows: SelectScreen kinase assay. Type of data set: biochemical. The conditions noted are these: KM ATP, read-out: % control. In a few lines:
as §2

In a further data set the target is T9, Yes_h (Homo sapiens, UniProt P07947).
T9 construct: purchased Life Technologies (Invitrogen) SelectScreen, Z'-LYTE / Adapta
T9 sequence (P07947 whole entry): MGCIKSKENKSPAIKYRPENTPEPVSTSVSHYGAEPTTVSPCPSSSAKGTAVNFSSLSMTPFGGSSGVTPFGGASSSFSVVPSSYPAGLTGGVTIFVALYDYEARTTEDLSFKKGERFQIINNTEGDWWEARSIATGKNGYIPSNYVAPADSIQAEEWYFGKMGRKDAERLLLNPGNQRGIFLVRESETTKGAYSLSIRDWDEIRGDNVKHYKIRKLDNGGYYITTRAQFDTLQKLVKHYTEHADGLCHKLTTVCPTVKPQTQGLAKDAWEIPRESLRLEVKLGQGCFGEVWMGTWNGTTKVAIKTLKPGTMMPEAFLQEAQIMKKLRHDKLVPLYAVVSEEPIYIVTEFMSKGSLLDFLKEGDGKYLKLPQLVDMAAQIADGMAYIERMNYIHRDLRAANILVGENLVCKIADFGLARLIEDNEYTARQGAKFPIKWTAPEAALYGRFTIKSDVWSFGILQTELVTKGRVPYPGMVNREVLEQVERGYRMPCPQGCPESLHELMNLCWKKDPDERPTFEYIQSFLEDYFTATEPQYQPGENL
In words: SelectScreen kinase assay. The format is biochemical. The following applies: KM ATP, read-out: % control. In a few lines: as §2

The next data set concerns the target T10, cSRC-N1_h (Homo sapiens, UniProt P12931).
T10 construct: purchased Life Technologies (Invitrogen) SelectScreen, Z'-LYTE / Adapta
In words: SelectScreen kinase assay. The format is biochemical. The following applies: KM ATP, read-out: % control. In outline:
as §2

The next data set addresses T11, Cyp1A2 (Homo sapiens, UniProt P05177).
T11 construct: purchased Life Technologies (Vivid Assay kits)
The data set is described as follows: Vivid cytochrome P450 inhibition assay. The conditions noted are these: data not shown. Type of data set: in vitro ADME. The protocol:
as §1

For a further data set, the target named is T12, Cyp2C19 (Homo sapiens, UniProt P33261).
T12 construct: purchased Life Technologies (Vivid Assay kits)
T12 sequence (P33261 whole entry): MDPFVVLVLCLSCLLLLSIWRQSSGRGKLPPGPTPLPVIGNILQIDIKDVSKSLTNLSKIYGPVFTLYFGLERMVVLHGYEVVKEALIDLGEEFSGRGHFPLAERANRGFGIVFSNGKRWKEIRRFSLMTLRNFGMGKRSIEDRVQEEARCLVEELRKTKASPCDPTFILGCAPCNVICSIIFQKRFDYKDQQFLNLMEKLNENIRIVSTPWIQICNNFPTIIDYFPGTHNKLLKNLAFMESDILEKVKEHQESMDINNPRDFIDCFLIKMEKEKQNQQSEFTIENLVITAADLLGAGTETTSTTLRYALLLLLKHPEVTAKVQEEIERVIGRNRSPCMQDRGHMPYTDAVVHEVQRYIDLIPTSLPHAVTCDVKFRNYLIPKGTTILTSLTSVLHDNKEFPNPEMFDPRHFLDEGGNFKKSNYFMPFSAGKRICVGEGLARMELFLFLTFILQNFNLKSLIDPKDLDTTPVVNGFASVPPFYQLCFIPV
The data set is described as follows: Vivid cytochrome P450 inhibition assay. The conditions noted are these: data not shown. Type of data set: in vitro ADME. The protocol:
as §1

A further data set deals with T13, Cyp2C9 (Homo sapiens, UniProt P11712).
T13 construct: purchased Life Technologies (Vivid Assay kits)
T13 sequence (P11712 whole entry): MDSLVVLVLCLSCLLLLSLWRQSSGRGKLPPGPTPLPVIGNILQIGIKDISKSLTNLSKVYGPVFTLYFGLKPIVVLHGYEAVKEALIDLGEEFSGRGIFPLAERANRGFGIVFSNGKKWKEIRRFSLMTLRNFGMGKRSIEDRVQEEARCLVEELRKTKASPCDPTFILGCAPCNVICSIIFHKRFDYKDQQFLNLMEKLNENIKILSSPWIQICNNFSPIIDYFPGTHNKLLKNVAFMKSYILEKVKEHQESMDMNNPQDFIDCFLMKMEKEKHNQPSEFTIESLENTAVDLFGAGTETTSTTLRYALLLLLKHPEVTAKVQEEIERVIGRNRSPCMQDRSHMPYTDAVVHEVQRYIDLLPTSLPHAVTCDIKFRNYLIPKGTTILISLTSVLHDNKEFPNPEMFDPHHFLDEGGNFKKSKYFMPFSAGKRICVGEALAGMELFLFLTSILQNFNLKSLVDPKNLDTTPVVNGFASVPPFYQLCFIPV
In words: Vivid cytochrome P450 inhibition assay. Type of data set: in vitro ADME. The conditions noted are these: data not shown. Here is the method:
as §1

Another data set addresses T14, Cyp2D6 (Homo sapiens, UniProt P10635).
T14 construct: purchased Life Technologies (Vivid Assay kits)
In words: Vivid cytochrome P450 inhibition assay. The conditions noted are these: data not shown. The format is in vitro ADME. Here is the method: as §1

The target in another data set is T15, Cyp3A4 (Homo sapiens, UniProt P08684).
T15 construct: purchased Life Technologies (Vivid Assay kits)
The data set is described as follows: Vivid cytochrome P450 inhibition assay. Type of data set: in vitro ADME. The conditions noted are these: data not shown. Here is the method:
as §1

Data set [1] relates to rat passive cutaneous anaphylaxis model. The following applies: 10 mg/kg dose; cited from earlier work.
The subject of data set [2] is proinflammatory analytes in paw tissue. The conditions noted are these: cited from earlier work.

These results are taken from paper PMC4710522, “A Novel Triazolopyridine-Based Spleen Tyrosine Kinase Inhibitor That Arrests Joint Inflammation” (PLoS ONE, 2016).

SMILES strings stand for the structures.

T14 sequence (P10635 whole entry): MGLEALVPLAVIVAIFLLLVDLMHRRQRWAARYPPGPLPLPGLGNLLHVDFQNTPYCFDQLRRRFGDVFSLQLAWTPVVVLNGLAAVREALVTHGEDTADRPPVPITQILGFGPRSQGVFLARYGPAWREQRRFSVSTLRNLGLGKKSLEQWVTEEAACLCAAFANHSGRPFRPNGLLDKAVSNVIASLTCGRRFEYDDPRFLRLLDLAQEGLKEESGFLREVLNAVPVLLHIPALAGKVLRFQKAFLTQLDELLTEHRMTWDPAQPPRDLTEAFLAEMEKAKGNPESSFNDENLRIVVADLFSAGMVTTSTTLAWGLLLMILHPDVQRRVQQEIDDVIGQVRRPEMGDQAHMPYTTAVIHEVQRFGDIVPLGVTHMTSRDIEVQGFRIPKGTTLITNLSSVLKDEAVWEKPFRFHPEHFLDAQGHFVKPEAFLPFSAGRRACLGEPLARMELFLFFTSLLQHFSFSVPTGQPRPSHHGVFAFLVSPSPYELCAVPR
T5 sequence (P16591 whole entry): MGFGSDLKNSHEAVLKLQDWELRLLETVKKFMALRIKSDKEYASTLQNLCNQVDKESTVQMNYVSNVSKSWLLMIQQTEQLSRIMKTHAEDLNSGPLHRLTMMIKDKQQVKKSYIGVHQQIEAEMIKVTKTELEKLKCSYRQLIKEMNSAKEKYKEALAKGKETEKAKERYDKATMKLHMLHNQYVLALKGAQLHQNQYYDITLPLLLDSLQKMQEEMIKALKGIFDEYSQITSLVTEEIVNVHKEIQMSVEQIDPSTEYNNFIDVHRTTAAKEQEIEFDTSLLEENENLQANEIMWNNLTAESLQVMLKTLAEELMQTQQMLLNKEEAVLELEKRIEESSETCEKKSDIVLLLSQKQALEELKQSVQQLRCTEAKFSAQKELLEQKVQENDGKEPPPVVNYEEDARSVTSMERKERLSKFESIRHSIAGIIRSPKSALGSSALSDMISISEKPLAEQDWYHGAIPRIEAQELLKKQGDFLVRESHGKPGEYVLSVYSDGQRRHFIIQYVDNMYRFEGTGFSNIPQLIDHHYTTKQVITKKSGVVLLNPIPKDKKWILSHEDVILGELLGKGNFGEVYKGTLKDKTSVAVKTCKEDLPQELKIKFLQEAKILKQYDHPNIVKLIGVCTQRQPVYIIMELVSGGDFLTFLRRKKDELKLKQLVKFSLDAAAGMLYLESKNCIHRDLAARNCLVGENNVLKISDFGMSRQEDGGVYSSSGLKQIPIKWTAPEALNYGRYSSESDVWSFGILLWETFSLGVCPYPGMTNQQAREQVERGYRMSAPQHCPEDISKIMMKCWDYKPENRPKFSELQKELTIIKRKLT
T11 sequence (P05177 whole entry): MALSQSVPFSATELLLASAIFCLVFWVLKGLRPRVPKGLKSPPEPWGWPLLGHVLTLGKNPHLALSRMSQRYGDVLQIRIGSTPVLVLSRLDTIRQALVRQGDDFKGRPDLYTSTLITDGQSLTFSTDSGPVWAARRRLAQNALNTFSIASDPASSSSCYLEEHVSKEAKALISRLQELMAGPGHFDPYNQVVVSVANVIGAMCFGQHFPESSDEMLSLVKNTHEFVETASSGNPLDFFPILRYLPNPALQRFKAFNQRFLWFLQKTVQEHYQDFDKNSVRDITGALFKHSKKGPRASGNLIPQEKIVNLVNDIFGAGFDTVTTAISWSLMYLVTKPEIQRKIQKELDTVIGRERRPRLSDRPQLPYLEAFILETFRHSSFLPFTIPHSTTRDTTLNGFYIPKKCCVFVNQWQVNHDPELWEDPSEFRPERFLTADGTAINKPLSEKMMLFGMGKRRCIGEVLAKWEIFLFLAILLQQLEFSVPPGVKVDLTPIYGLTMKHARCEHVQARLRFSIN

In the case of `c1cc(CC2CCOCC2)n2nc(Nc3ccc4c(NC5CCOCC5)n[nH]c4c3)nc2c1` [CC-509, [3-(2H-3,4,5,6-tetrahydropyran-4-ylamino)(1H-indazol-6-yl)][5-(2H-3,4,5,6-tetrahydropyran-4-ylmethyl)(2H-1,2,4-triazolo[1,5-a]pyridin-2-yl)]amine], in the data set on AMPK_r, the “% control” value is 84%. Further, the remaining activity at 3 µM came out at 34% at Abl_T315I_h; 22% on Abl_Y253F_h; 86% at CAMK1_h; 97% on EGFR_L861Q_h; 40% at Fer_h; 71% on Hck_h. Also, the remaining activity at 3 µM amounted to 60% at PRK1_h, 74% on Ron_h, 54% at Yes_h and 58% at cSRC-N1_h. The “inhibition of Cyp450 activity” value against Cyp1A2, on Cyp2C19, on Cyp2C9, against Cyp2D6 and against Cyp3A4 was “did not inhibit” in each case.

As for `COc1cc(Nc2ncc(F)c(Nc3ccc4c(n3)NC(=O)C(C)(C)O4)n2)cc(OC)c1OC` [R406, reference compound], in [1], the “effect in the PCA model” value was “statistically significant effect”. For the same compound, the “expression of MCP-1, KC, IL-6 and IL-1β in the CIA model” value in data set [2] is given as “inhibited”.
